In ChEMBL document CHEMBL3120154, “2-[N-Alkyl(R-phenyl)-aminomethyl]-3-phenyl-7-trifluoromethylquinoxalines as anticancer agents inhibitors of folate enzymes” (Eur J Med Chem, 2014):

Assays:
Type in all cases: functional
SF-295 [1] = experiment: Cytotoxicity against human SF295 cells at 10^-8 M after 48 hrs by SRB assay; conditions: SF-295, 48 h, read-out: GI
NCI-H522 = experiment: Cytotoxicity against human NCI-H522 cells at 10^-8 M after 48 hrs by SRB assay; conditions: NCI-H522, 48 h, read-out: GI
MDA-MB-435 = experiment: Cytotoxicity against human MDA-MB-435 cells at 10^-8 M after 48 hrs by SRB assay; conditions: MDA-MB-435, 48 h, read-out: GI
DU-145 = experiment: Cytotoxicity against human DU145 cells at 10^-7 M after 48 hrs by SRB assay; conditions: DU-145, 48 h, read-out: GI
SF-539 [2] = experiment: Cytotoxicity against human SF539 cells at 10^-7 M after 48 hrs by SRB assay; conditions: SF-539, 48 h, read-out: GI
SF-268 [3] = experiment: Cytotoxicity against human SF268 cells at 10^-7 M after 48 hrs by SRB assay; conditions: SF-268, 48 h, read-out: GI
MCF7 [4] = experiment: Cytotoxicity against human MCF7 cells at 10^-8 M after 48 hrs by SRB assay; conditions: MCF7, 48 h, read-out: GI
U-251 [5] = experiment: Cytotoxicity against human U251 cells at 10^-8 M after 48 hrs by SRB assay; conditions: U-251, 48 h, read-out: GI
NCI/ADR-RES = experiment: Cytotoxicity against human NCI/ADR-RES cells at 10^-7 M after 48 hrs by SRB assay; conditions: read-out: GI
HCC 2998 [6] = experiment: Cytotoxicity against human HCC2998 cells at 10^-6 M after 48 hrs by SRB assay; conditions: HCC 2998, 48 h, read-out: GI
T47D = experiment: Cytotoxicity against human T47D cells at 10^-7 M after 48 hrs by SRB assay; conditions: read-out: GI
HCC 2998 [7] = experiment: Cytotoxicity against human HCC2998 cells at 10^-7 M after 48 hrs by SRB assay; conditions: HCC 2998, 48 h, read-out: GI
PC-3 = experiment: Cytotoxicity against human PC3 cells at 10^-8 M after 48 hrs by SRB assay; conditions: PC-3, 48 h, read-out: GI
CCRF-CEM = experiment: Cytotoxicity against human CCRF-CEM cells at 10^-7 M after 48 hrs by SRB assay; conditions: read-out: GI
[8] = Cytotoxicity against human OVCAR5 cells at 10^-8 M after 48 hrs by SRB assay; conditions: OVCAR-5, 48 h, read-out: GI
[9] = Cytotoxicity against human UO31 cells at 10^-7 M after 48 hrs by SRB assay; conditions: UO-31, 48 h, read-out: GI
A549 = experiment: Cytotoxicity against human A549 cells at 10^-8 M after 48 hrs by SRB assay; conditions: A549, 48 h, read-out: GI
NCI-H460 = experiment: Cytotoxicity against human NCI-H460 cells at 10^-8 M after 48 hrs by SRB assay; conditions: NCI-H460, 48 h, read-out: GI
MOLT-4 [10] = experiment: Cytotoxicity against human MOLT4 cells at 10^-8 M after 48 hrs by SRB assay; conditions: MOLT-4, 48 h, read-out: GI
NCI-H322M = experiment: Cytotoxicity against human NCI-H322M cells at 10^-7 M after 48 hrs by SRB assay; conditions: read-out: GI
K562 = experiment: Cytotoxicity against human K562 cells at 10^-7 M after 48 hrs by SRB assay; conditions: K562, 48 h, read-out: GI
A498 = experiment: Cytotoxicity against human A498 cells at 10^-7 M after 48 hrs by SRB assay; conditions: A498, 48 h, read-out: GI
SF-539 [11] = experiment: Cytotoxicity against human SF539 cells at 10^-8 M after 48 hrs by SRB assay; conditions: SF-539, 48 h, read-out: GI
SW-620 = experiment: Cytotoxicity against human SW620 cells at 10^-7 M after 48 hrs by SRB assay; conditions: SW-620, 48 h, read-out: GI
CAKI-1 [12] = experiment: Cytotoxicity against human Caki1 cells at 10^-8 M after 48 hrs by SRB assay; conditions: CAKI-1, 48 h, read-out: GI
[13] = Cytotoxicity against human EKVX cells at 10^-7 M after 48 hrs by SRB assay; conditions: read-out: GI
RXF 393 [14] = experiment: Cytotoxicity against human RXF393 cells after 48 hrs by SRB assay; conditions: RXF 393, 48 h
UACC-62 = experiment: Cytotoxicity against human UACC62 cells at 10^-7 M after 48 hrs by SRB assay; conditions: UACC-62, 48 h, read-out: GI
SK-MEL-2 = experiment: Cytotoxicity against human SK-MEL-2 cells at 10^-7 M after 48 hrs by SRB assay; conditions: SK-MEL-2, 48 h, read-out: GI
[15] = Cytotoxicity against human UO31 cells at 10^-5 M after 48 hrs by SRB assay; conditions: UO-31, 48 h, read-out: GI
MCF7 [16] = experiment: Cytotoxicity against human MCF7 cells at 10^-7 M after 48 hrs by SRB assay; conditions: MCF7, 48 h, read-out: GI
U-251 [17] = experiment: Cytotoxicity against human U251 cells at 10^-7 M after 48 hrs by SRB assay; conditions: U-251, 48 h, read-out: GI
HCT-15 = experiment: Cytotoxicity against human HCT15 cells at 10^-8 M after 48 hrs by SRB assay; conditions: HCT-15, 48 h, read-out: GI
MOLT-4 [18] = experiment: Cytotoxicity against human MOLT4 cells at 10^-7 M after 48 hrs by SRB assay; conditions: MOLT-4, 48 h, read-out: GI
HT-29 = experiment: Cytotoxicity against human HT-29 cells at 10^-7 M after 48 hrs by SRB assay; conditions: HT-29, 48 h, read-out: GI
RXF 393 [19] = experiment: Cytotoxicity against human RXF393 cells at 10^-8 M after 48 hrs by SRB assay; conditions: RXF 393, 48 h, read-out: GI
SN12C = experiment: Cytotoxicity against human SN12C cells at 10^-7 M after 48 hrs by SRB assay; conditions: read-out: GI
SF-295 [20] = experiment: Cytotoxicity against human SF295 cells at 10^-5 M after 48 hrs by SRB assay; conditions: SF-295, 48 h, read-out: GI
IGROV-1 = experiment: Cytotoxicity against human IGROV1 cells at 10^-7 M after 48 hrs by SRB assay; conditions: IGROV-1, 48 h, read-out: GI
BT-549 = experiment: Cytotoxicity against human BT549 cells at 10^-8 M after 48 hrs by SRB assay; conditions: BT-549, 48 h, read-out: GI
SR = experiment: Cytotoxicity against human SR cells at 10^-4 M after 48 hrs by SRB assay; conditions: read-out: GI
SF-268 [21] = experiment: Cytotoxicity against human SF268 cells at 10^-8 M after 48 hrs by SRB assay; conditions: SF-268, 48 h, read-out: GI
CAKI-1 [22] = experiment: Cytotoxicity against human Caki1 cells at 10^-7 M after 48 hrs by SRB assay; conditions: CAKI-1, 48 h, read-out: GI
SNB-19 = experiment: Cytotoxicity against human SNB19 cells at 10^-7 M after 48 hrs by SRB assay; conditions: SNB-19, 48 h, read-out: GI
SK-MEL-28 = experiment: Cytotoxicity against human SK-MEL-28 cells at 10^-7 M after 48 hrs by SRB assay; conditions: SK-MEL-28, 48 h, read-out: GI

SMILES: CCN(Cc1nc2cc(C(F)(F)F)ccc2nc1-c1ccccc1)c1ccc(OC)c(OC)c1
- inhibition of growth at 0.01 µM (SF-295 [1]): < 40%
- inhibition of growth at 0.01 µM (NCI-H522): < 40%
- inhibition of growth at 0.01 µM (MDA-MB-435): < 40%
- inhibition of growth at 0.1 µM (DU-145): < 40%
- inhibition of growth at 0.1 µM (SF-539 [2]): < 40%
- inhibition of growth at 0.1 µM (SF-268 [3]): < 40%
- inhibition of growth at 0.01 µM (MCF7 [4]): < 40%
- inhibition of growth at 0.01 µM (U-251 [5]): < 40%
- inhibition of growth at 0.1 µM (NCI/ADR-RES): < 40%
- inhibition of growth at 1 µM (HCC 2998 [6]): < 40%
- inhibition of growth at 0.1 µM (T47D): < 40%
- inhibition of growth at 0.1 µM (HCC 2998 [7]): < 40%
- inhibition of growth at 0.01 µM (PC-3): < 40%
- inhibition of growth at 0.1 µM (CCRF-CEM): < 40%
- inhibition of growth at 0.01 µM [8]: < 40%
- inhibition of growth at 0.1 µM [9]: < 40%
- inhibition of growth at 0.01 µM (A549): 19%
- inhibition of growth at 0.01 µM (NCI-H460): < 40%
- inhibition of growth at 0.01 µM (MOLT-4 [10]): < 40%
- inhibition of growth at 0.1 µM (NCI-H322M): < 40%
- inhibition of growth at 0.1 µM (K562): < 40%
- inhibition of growth at 0.1 µM (A498): < 40%
- inhibition of growth at 0.01 µM (SF-539 [11]): < 40%
- inhibition of growth at 0.1 µM (SW-620): < 40%
- inhibition of growth at 0.01 µM (CAKI-1 [12]): < 40%
- inhibition of growth at 0.1 µM [13]: < 40%
- GI50 (RXF 393 [14]): 309 nM
- inhibition of growth at 0.1 µM (UACC-62): < 40%
- inhibition of growth at 0.1 µM (SK-MEL-2): < 40%
- inhibition of growth at 10 µM [15]: < 40%
- inhibition of growth at 0.1 µM (MCF7 [16]): < 40%
- inhibition of growth at 0.1 µM (U-251 [17]): < 40%
- inhibition of growth at 0.01 µM (HCT-15): < 40%
- inhibition of growth at 0.1 µM (MOLT-4 [18]): < 40%
- inhibition of growth at 0.1 µM (HT-29): < 40%
- inhibition of growth at 0.01 µM (RXF 393 [19]): 22%
- inhibition of growth at 0.1 µM (SN12C): < 40%
- inhibition of growth at 10 µM (SF-295 [20]): 18%
- inhibition of growth at 0.1 µM (IGROV-1): < 40%
- inhibition of growth at 0.01 µM (BT-549): < 40%
- inhibition of growth at 100 µM (SR): 145%
- inhibition of growth at 0.01 µM (SF-268 [21]): < 40%
- inhibition of growth at 0.1 µM (CAKI-1 [22]): < 40%
- inhibition of growth at 0.1 µM (SNB-19): < 40%
- inhibition of growth at 0.1 µM (SK-MEL-28): < 40%
